Test results from patent publication US20240216401A1, “COMBINATION THERAPY BY USING AKR1C3-ACTIVATED COMPOUND WITH IMMUNE CHECKPOINT INHIBITOR” (OBI Pharma, Inc., priority 2021, published 2024).
Values joined by “and” are separate entries in the source; they are usually repeats but may differ in a detail not shown here. Equal values may be shown once.

What was measured:
Type in all cases: in vivo, Mus musculus
[1] = tested on: CD8^+ cytotoxic T cells (CTL) in tumor-infiltrating lymphocytes; assay: Example 1: flow cytometry, percentage of CTL cells in TILs
Method: (§1) Mice were sacrificed by CO2 euthanasia at the end of the study duration, and the connective tissue around tumor was resected. The tumor samples were then removed and weighed. The half tissue was fixed in 10% formaldehyde and then embedded in paraffin; the other half was prepared for the isolation of tumor-infiltrating lymphocytes (TILs).
(§2) The half of mouse tumors were dissected into smaller fragments using scalpels and then digested with a cocktail of collagenase, DNase I, and Hyaluronidase (Collagenase #C5138, DNase I #D5025, Hyaluronidase #H6254, SigmaAldrich) for at least 2 hours.
(§3) Cells were stained with the fluorescently conjugated surface antibodies and incubated for 30 minutes at 4° C., and then resuspended in staining buffer for flow cytometric analysis. Flow cytometry was done using a Navios EX Flow Cytometer (Beckman Coulter). Data were analyzed using the Kaluza Analysis Software (Beckman Coulter).

[2] = Example 1: body weight and mortality of HepG2 tumor bearing humanized mice; conditions: for Body Weight, Mean: OBI-3424 1 mg/kg IV, antibody 10 mg/kg IP (20 from Day 15)
Method: (§4) Each group contains five mice. The human hepatocellular carcinoma cell line HepG2 were subcutaneously inoculated to the advanced immune deficiency mice. Total of 30 mice were included in this study.
(§5) 3.1. […] The injection was performed using insulin syringe with the dosage of 10 mg/kg (Dosage of injection was changed to 20 mg/kg from Day 15) and injection volume of 10 mL/kg. […] The reference item was administered for G1. The procedure followed the standards of sample administration.
(§6) 3.2. The test item anti-hPD-L1 antibody or reference items were intraperitoneally injected to the mice on Day 8 after the inoculation of tumor cells. The injection was performed using insulin syringe with the dosage of 10 mg/kg (Dosage of injection was changed to 20 mg/kg from Day 15) and injection volume of 10 mL/kg. The test item anti-hPD-L1 was continuously administered on Day 8, 11, 15, 18, 22, 25, 29 and 32 for G4 and G6. The reference item was administered for G1. The procedure followed the standards of sample administration.
(§7) 3.3. […] The injection was performed using insulin syringe with the dosage of 1 mg/kg and injection volume of 5 mL/kg. […] The reference item was administered for G1. The procedure followed the standards of sample administration.
The measurement was performed from the next day of the inoculation. The animal body weights were measured and recorded twice per week.

[3] = tested on: NK cells in tumor-infiltrating lymphocytes; assay: Example 1: flow cytometry, percentage of NK cells in TILs; conditions: individual mice
Method: as §1, §2, §3

HepG2 tumor = assay: Example 1: tumor volume, tumor weight and TGI in HepG2 tumor bearing humanized mice
Method: as §4
2.2. […] The subcutaneous injection volume was […].
as §5, §6, §7
The measurement was performed from the next day of the inoculation. The tumor volumes were measured and recorded twice a week (Mon., Thur.). Tumor volume was calculated by ellipsoid equation according to the records ((major axis×minor axis×minor axis)×(π/6)).
Tumor volumes were used to calculate tumor growth inhibition (TGI) rates according to the following formula: TGI (%)=[1−(Ti−T0)/(Ci−C0)]×100, where Ti and Ci indicate the mean tumor volume in the treatment groups and vehicle group at the end of the experiment (Day 35). Whereas, T0 and C0 indicate the mean tumor volumes in the treatment group and vehicle group at the beginning of the experiment (Day 1).
as §1

[4] = tested on: PD-L1^+ cells in tumor-infiltrating lymphocytes; assay: Example 1: flow cytometry, percentage of PD-L1 cells in TILs; conditions: individual animal
Method: as §1, §2, §3

[5] = tested on: CD4^+ T helper cells in tumor-infiltrating lymphocytes; assay: Example 1: flow cytometry, percentage of TH cells in TILs; conditions: individual mice
Method: as §1, §2, §3

[6] = TILs, flow cytometer, individual mice
[7] = TILs, gate CD45^+CD8^+ cells, individual mice

## anti-hPD-L1: Anti-Human PD-L1 antibody, Avelumab
[1]; Example 1, TILs at sacrifice, flow cytometry
  CD8^+ cytotoxic T cells (CTL) population in tumors compared with vehicle (in words): not observed
[1]; [6]
  CD25^+ CTL cells (CD45^+CD8^+ CD25^+) Total %: 0.27% and 0.30% and 0.21% and 0.63%
  CTL cells (CD45^+CD8^+) Total %: 14.00% and 18.51% and 11.85% and 16.01%
  PD-1^+ CTL cells (CD45^+CD8^+ PD-1^+) Total %: 17.16% and 16.84% and 12.16% and 16.68%
[1]; TILs, gate CD45^+ cells, individual mice
  CTL cells (CD45^+CD8^+) CD45^+ Gated %: 57.51% and 57.17% and 56.56% and 70.33%
[1]; [7]
  CD25^+ CTL cells (CD45^+CD8^+ CD25^+) CTL Gated %: 1.93% and 1.59% and 1.77% and 3.90%
  PD-1^+ CTL cells (CD45^+CD8^+ PD-1^+) CTL Gated %: 97.44% and 88.98% and 94.63% and 98.61%
[1]; TILs, individual mice
  CD25^+ CTL cells (CD45^+CD8^+ CD25^+) Cell count: 0.33 ×10^5 and 0.66 ×10^5 and 0.37 ×10^5 and 0.45 ×10^5
  CTL cells (CD45^+CD8^+) Cell count: 17.08 ×10^5 and 40.72 ×10^5 and 20.97 ×10^5 and 11.56 ×10^5
  PD-1^+ CTL cells (CD45^+CD8^+ PD-1^+) Cell count: 20.94 ×10^5 and 37.05 ×10^5 and 21.52 ×10^5 and 12.04 ×10^5
[2]; Day 0, group mean
  Body Weight, Mean: 22.87 g
[2]; Day 1, group mean
  Body Weight, Mean: 22.73 g
[2]; Day 4, group mean
  Body Weight, Mean: 23.32 g
[2]; Day 7, group mean
  Body Weight, Mean: 23.48 g
[2]; Day 11, group mean
  Body Weight, Mean: 24.17 g
[2]; Day 14, group mean
  Body Weight, Mean: 23.74 g
[2]; Day 18, group mean
  Body Weight, Mean: 23.56 g
[2]; Day 21, group mean
  Body Weight, Mean: 23.37 g
[2]; Day 25, group mean
  Body Weight, Mean: 23.70 g
[2]; Day 28, group mean
  Body Weight, Mean: 23.57 g
[2]; Day 32, group mean
  Body Weight, Mean: 22.55 g
[2]; Day 35, group mean
  Body Weight, Mean: 23.35 g
[2]; one mouse (MI052) of G4
  mortality: found dead on Day 34
[3]; flow cytometer
  CD16^+ NK cells (CD45^+CD56^+ CD16^+) Total %: 0.44% and 0.80% and 0.62% and 0.48%
  NK cells (CD45^+CD56^+) Total %: 1.67% and 2.61% and 1.42% and 1.80%
  PD-1^+ NK cells (CD45^+CD56^+PD-1^+) Total %: 2.28% (2×) and 2.10% and 1.78%
[3]; gate CD45^+ cells
  NK cells (CD45^+CD56^+) CD45^+ Gated %: 9.51% and 10.84% and 12.49% and 8.78%
[3]; gate CD45^+CD56^+ cells
  CD16^+ NK cells (CD45^+CD56^+ CD16^+) NK Gated %: 26.13% and 30.65% and 43.46% and 26.39%
  PD-1^+ NK cells (CD45^+CD56^+PD-1^+) NK Gated %: 99.56% and 97.23% and 88.77% and 91.52%
[3]
  CD16^+ NK cells (CD45^+CD56^+ CD16^+) Cell count: 0.54 ×10^5 and 1.76 ×10^5 and 1.10 ×10^5 and 0.35 ×10^5
  NK cells (CD45^+CD56^+) Cell count: 2.04 ×10^5 and 5.74 ×10^5 and 2.51 ×10^5 and 1.30 ×10^5
  PD-1^+ NK cells (CD45^+CD56^+PD-1^+) Cell count: 2.78 ×10^5 and 5.02 ×10^5 and 3.72 ×10^5 and 1.29 ×10^5
HepG2 tumor; D 1, group mean, OBI-3424 1 mg/kg IV, antibody 10 mg/kg IP (20 from Day 15)
  Tumor volume, Mean: 409.71 mm^3
HepG2 tumor; D 4, group mean, OBI-3424 1 mg/kg IV, antibody 10 mg/kg IP (20 from Day 15)
  Tumor volume, Mean: 316.07 mm^3
HepG2 tumor; D 7, group mean, OBI-3424 1 mg/kg IV, antibody 10 mg/kg IP (20 from Day 15)
  Tumor volume, Mean: 304.50 mm^3
HepG2 tumor; D 11, group mean, OBI-3424 1 mg/kg IV, antibody 10 mg/kg IP (20 from Day 15)
  Tumor volume, Mean: 342.83 mm^3
HepG2 tumor; D 14, group mean, OBI-3424 1 mg/kg IV, antibody 10 mg/kg IP (20 from Day 15)
  Tumor volume, Mean: 371.47 mm^3
HepG2 tumor; D 18, group mean, OBI-3424 1 mg/kg IV, antibody 10 mg/kg IP (20 from Day 15)
  Tumor volume, Mean: 491.18 mm^3
HepG2 tumor; D 21, group mean, OBI-3424 1 mg/kg IV, antibody 10 mg/kg IP (20 from Day 15)
  Tumor volume, Mean: 675.33 mm^3
HepG2 tumor; D 25, group mean, OBI-3424 1 mg/kg IV, antibody 10 mg/kg IP (20 from Day 15)
  Tumor volume, Mean: 812.95 mm^3
HepG2 tumor; D 28, group mean, OBI-3424 1 mg/kg IV, antibody 10 mg/kg IP (20 from Day 15)
  Tumor volume, Mean: 866.97 mm^3
HepG2 tumor; D 32, group mean, OBI-3424 1 mg/kg IV, antibody 10 mg/kg IP (20 from Day 15)
  Tumor volume, Mean: 1155.84 mm^3
HepG2 tumor; D 35, group mean (mean±SEM), OBI-3424 1 mg/kg IV, antibody 10 mg/kg IP (20 from Day 15)
  Tumor volume, Mean: 1148.64±193.00 mm^3 and 1148.64 mm^3
HepG2 tumor; D 35, group mean, OBI-3424 1 mg/kg IV, antibody 10 mg/kg IP (20 from Day 15)
  Tumor weight, Mean: *1010.73 mg
HepG2 tumor; Day 35, vs vehicle (G1), Student's t-test
  mean tumor volume compared with vehicle (in words): No statistically significant difference
HepG2 tumor; HepG2 humanized mouse model
  effect on tumor growth (conclusion in words): no effect on tumor growth
HepG2 tumor; from mean tumor volumes Day 35 vs Day 1, relative to vehicle, OBI-3424 1 mg/kg IV, antibody 10 mg/kg IP (20 from Day 15)
  TGI: 35.60%
[4]
  CD45^+ cells Cell count (×10^6): 2.97 ×10^6 and 7.12 ×10^6 and 3.71 ×10^6 and 1.64 ×10^6
  CD45^+ cells Gated %: 34.93% and 47.08% and 31.41% and 28.59%
  CD45^+ cells Total %: 24.35% and 32.38% and 20.95% and 22.77%
  Total PD-L1^+ cells (PD-L1^+) Cell count (×10^5): 1.35 ×10^5 and 3.98 ×10^5 and 15.58 ×10^5 and 12.17 ×10^5
  Total PD-L1^+ cells (PD-L1^+), Total %: 1.11% and 1.81% and 8.80% and 16.86%
  Total PD-L1^+ cells (PD-L1^+), Total cells Gated %: 1.43% and 2.38% and 11.79% and 19.02%
  Total cells Cell count (×10^6): 9.42 ×10^6 and 16.72 ×10^6 and 13.21 ×10^6 and 6.40 ×10^6
  Total cells Gated %: 77.18% and 75.98% and 74.62% and 88.63%
  Total cells Total %: 77.18% and 75.98% and 74.62% and 88.63%
[5]; flow cytometer
  CD25^+ TH cells (CD45^+CD4^+ CD25^+) Total %: 1.19% and 1.34% and 1.01% and 1.14%
  PD-1^+ TH cells (CD45^+CD4^+ PD-1^+) Total %: 10.85% and 11.67% and 6.66% and 15.38%
  TH cells (CD45^+CD4^+) Total %: 9.82% and 12.42% and 6.81% and 15.92%
[5]; gate CD45^+ cells
  TH cells (CD45^+CD4^+) CD45^+ Gated %: 40.34% and 38.36% and 32.51% and 69.93%
[5]; gate CD45^+CD4^+ cells
  CD25^+ TH cells (CD45^+CD4^+CD25^+) TH Gated %: 12.12% and 10.75% and 14.76% and 7.16%
  PD-1^+ TH cells (CD45^+CD4^+ PD-1^+) TH Gated %: 99.40% (2×) and 99.02% and 99.19%
[5]
  CD25^+ TH cells (CD45^+CD4^+ CD25^+) Cell count: 1.45 ×10^5 and 2.95 ×10^5 and 1.79 ×10^5 and 0.82 ×10^5
  PD-1^+ TH cells (CD45^+CD4^+ PD-1^+) Cell count: 13.24 ×10^5 and 25.67 ×10^5 and 11.79 ×10^5 and 11.10 ×10^5
  TH cells (CD45^+CD4^+) Cell count: 11.98 ×10^5 and 27.32 ×10^5 and 12.05 ×10^5 and 11.49 ×10^5
